This note sets out measurements from paper PMC2698043 (Journal of medicinal chemistry, 2009).

Structures are written as SMILES.

Assay [1] deals with T1, human PNP (Homo sapiens, UniProt P00491). The assay is described as follows: biochemical.
Assay [2] deals with T1, human PNP.
A further assay deals with blood PNP (Mus musculus, UniProt P23492). Particulars: mice.
blood PNP, sequence (P23492 whole entry): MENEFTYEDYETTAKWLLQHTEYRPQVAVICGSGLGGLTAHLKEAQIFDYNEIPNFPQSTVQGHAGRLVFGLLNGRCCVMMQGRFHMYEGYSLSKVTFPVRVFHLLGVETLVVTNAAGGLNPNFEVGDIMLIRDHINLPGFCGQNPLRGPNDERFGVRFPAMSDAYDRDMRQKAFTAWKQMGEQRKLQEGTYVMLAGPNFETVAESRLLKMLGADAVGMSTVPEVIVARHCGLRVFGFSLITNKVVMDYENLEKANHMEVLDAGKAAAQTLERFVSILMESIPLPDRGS

T1 sequence (P00491 whole entry): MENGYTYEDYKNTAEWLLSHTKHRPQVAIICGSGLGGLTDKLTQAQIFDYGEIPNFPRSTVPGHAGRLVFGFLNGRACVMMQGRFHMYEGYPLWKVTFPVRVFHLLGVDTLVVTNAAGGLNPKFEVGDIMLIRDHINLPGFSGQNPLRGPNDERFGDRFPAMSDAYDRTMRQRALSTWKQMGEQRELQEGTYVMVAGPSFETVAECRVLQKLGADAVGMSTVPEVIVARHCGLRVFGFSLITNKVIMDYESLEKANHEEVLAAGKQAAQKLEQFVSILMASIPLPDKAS

As to `Nc1nc2c(CNC(CO)CO)c[nH]c2c(=O)[nH]1` [Compound 8, 2-Amino-7-{[(1,3-dihydroxypropan-2-yl)amino]methyl}-3,5-dihydro-4H-pyrrolo[3,2-d]pyrimidin-4-one], the dissociation constant (Kd) at human PNP [1] was determined as 2.1 pM.

As for `Nc1nc2c(CN[C@H](CO)[C@H](O)CO)c[nH]c2c(=O)[nH]1` [Compound 9, 2-Amino-7-({[(2R,3S)-1,3,4-trihydroxybutan-2-yl]amino}methyl)-3,5-dihydro-4Hpyrrolo[3,2-d]pyrimidin-4-one], the “times more active inhibitor than 9-deazahypoxanthine analogue 11” value on human PNP [2] was 2 – 3 times.

Compound `O=c1[nH]cnc2c(CNC(CO)CO)c[nH]c12` [Compound 10] displayed a dissociation constant Kd at human PNP [1] of 5.2 pM. Moreover, the “time to complete inhibition of PNP catalytic activity” value at blood PNP (single 50 nmol dose, i.p. injection) was no more than 20 min. Besides, the “inhibition of blood PNP catalytic activity” value against blood PNP (single oral dose, for a period of 25 days) is greater than 50%.
